Test results: patent publication US20260242366A1, “STING AGONISTS CONTAINING HYDRAZIDE, HYDRAZINE, AND HYDROXAMIC ACID FUNCTIONAL GROUPS” (BioNTech SE, priority 2023, published 2026)
Read-outs that look alike come from different tables or passages of the source.

Assays:
[1] = tested on: PBMCs from healthy donors; assay: PBMC assay, dose-dependent cytokine induction; format: cell-based; details: Homo sapiens, 24 h
Experimental: Compounds I-A to IV were additionally tested on PBMCs from healthy donors to determine the dose-dependent cytokine induction. PBMCs from buffy coats were thawed on the day of the experiment and seeded with a density of 5×10^5 cells per well (96-well format, RPMI with 5% Human Serum+1% MEM Non-Essential Amino Acids+1% Sodium Pyruvate). In line with the experiment above, a serial dilution of the compounds was prepared and added to the cells for 24 hours. On the next days, cells were centrifuged and supernatants harvested for a cytokine readout based on a multiplex assay kit from mesoscale discovery (customized multiplex panel for the cytokines: IFNα2a, IFNβ, TNFα and IL6). Impact on cell viability was determined by CellTiter Glo2.0 from promega (Cat. G9241). Both experimental read outs were performed according to the manufacturer's instructions.

[2] = biological target: T1, human STING (Homo sapiens, UniProt Q86WV6); assay: Affinity measurement assay (Biacore T200 SPR); details: biotinylated human STING, 25° C., 1:1 binding model, read-out: Affinity (Kd) rhSTING
T1 construct: fused on or other part: His tag; chemically biotinylated (Sulfo-NHS-LC-Biotin) for capture on the chip
Experimental: T7 Shuffle E. coli cells, transformed with an expression vector encoding either a truncated version of human or murine His-tagged STING, were cultivated overnight in 50 mL LB media. 200 mL of LB media were inoculated to an OD600 of 0.05 and cells were grown at 37° C. at 120 rpm until an OD600 of 0.5 was reached. Protein expression was induced using 1 mM IPTG and cells were further cultivated at 30° C. over night. Cells were harvested by centrifugation at 4000 rpm for 30 min at 4° C. and frozen at −80° C. Subsequently, cells were thawed and resuspended in 30 mL IMAC-Buffer A (10 mM HEPES, 50 mM NaCl, 10 mM Imidazole, 250 mM L-Arginine, 10% Glycerol, pH 7.1) supplemented with 15 U/mL benzonase, 0.2 mg/mL MgCl2 and 0.1 mg/mL lysozyme. Lysis was performed by five sonification cycles with an amplitude of 25% and a pulse for 2 s, with 5 min incubation on ice between cycles. The lysate was centrifuged for 15 min at 16.000 g and the supernatant was filtrated (0.22 μm). Purification of STING was done using an ÄKTA prime chromatography system. A 1 mL His Trap excel column was equilibrated with IMAC-Buffer A before lysate was applied. After washing with multiple column volumes of buffer, STING was eluted using a linear gradient of IMAC-Buffer B (10 mM HEPES, 50 mM NaCl, 500 mM Imidazole, 250 mM L-Arginine, 10% Glycerol, pH 7.1). Elution fractions were analyzed by SDS-PAGE and STING containing fractions were mixed. Using the Äkta pure system in combination with a HiLoad Superdex 16/600 75 pg column, STING was further purified by preparative size-exclusion chromatography. Fractions were analyzed by SDS-PAGE and STING containing fractions were combined.
Purified proteins were biotinylated using EZ-Link Sulfo-NHS-LC-Biotin (Life Technologies GmbH) in ten-fold excess for 2 h on ice. The reaction was quenched by addition of 100 mM Tris pH8 and 1 h incubation on ice. Remaining biotin was removed by performing buffer exchange to PBS using Zeba Spin Desalting Columns, 7K MWCO, 0.5 mL (Thermo Fischer). Protein concentrations were determined using the Nanodrop system.
Affinity measurement of STING-binding compounds were performed using the Biacore T200 SPR system (GE Healthcare, Biacore T200 control Software 3.2). Therefore, the Biotin CAPture kit, series S (Cytiva Europe, Cat.no. 28920234) was utilized. A freshly docked Biotin CAPture chip was rehydrated overnight in the instrument (standby mode). The following day, the chip surface was conditioned three times with regeneration solution (6 M guanidine-HCl, 0.25 M NaOH) for 60 s at 10 μL/min on flow cell (FC) 1 and FC2. Subsequently, the Biotin CAPture reagent (Cytiva Europe, Cat.no. 29423383) was applied for 300 s at 2 μL/min on FC1 and FC2, followed by capturing of 100 nM biotinylated murine or 150 nM biotinylated human STING, respectively. […]

[3] = tested on: 4T1 cells; assay: Anti-tumoral efficacy in murine 4T1 breast cancer model; format: in vivo, Balb/c Rj mice
Experimental: The anti-tumoral efficacy of compound I-D was tested in a murine 4T1 breast cancer model. Balb/c Rj mice were injected subcutaneously with 1×10^5 4T1 cells. Three doses of compound I-D formulated in 5% Solutol in 2.5% glucose (31 nmol, 3.1 nmol and 0.31 nmol) or the vehicle control (5% Solutol in 2.5% glucose) were administered intratumorally at days 11, 16 and 21 after inoculation. Tumor size was monitored using BioVolume® (calculating the tumor size based on RGB, thermal and 3D model data) until day 21, when animals were sacrificed and tumor cytokines were analyzed compared to serum 3 h after final agonist injection. To evaluate the statistical significance of tumor volume reduction compared to the vehicle control, a 2way ANOVA test was used: *** p<0.0001.

[4] = tested on: STING signaling (IRF and NFKB-pathway activation) in THP1 Dual Cells; assay: THP-1 assay (THP1 Dual reporter cells, IRF / NFkB pathway activation); format: cell-based; details: Homo sapiens; THP1 Dual cells, 24 h incubation, IRF pathway; read-out: THP-1 EC50 (IRF)
Experimental: THP1 Dual Cells™, were purchased from Invivogen (Cat. thpd-nfis), and used to determine the biological activity of the compounds on a molecular level and to determine downstream activation of STING signaling (IRF and NFKB-pathway activation). Briefly, cultured cells were seeded on the day of the experiment with a density of 1×10^5 cells per well (96-well format in RPMI supplemented with 25 mM HEPES, 10% heat inactivated FCS,). A serial dilution of the compounds was prepared and added to the cells for a total incubation time of 24 hours. The test items were tested in 8 concentrations to determine a dose-dependent activation of the NFKB and the IRF pathway. After 24 h cells were centrifuged and supernatants harvested for the detection of secreted alkaline phosphatase (measured by QUANTI-Blue™ detection solution; Cat. rep-qbs Invivogen) or lucia luciferase (measured by QUANTI-Luc™ reagent; Cat. rep-qlc1, Invivogen), respectively. The read outs were be performed according to the manufacturer's instructions. EC50 values were calculated using GraphPad Prism 9.

[5] = IFNα in supernatant, read-out: PBMC EC50 (μM) for IFNα
[6] = IFNβ in supernatant, read-out: PBMC EC50 (μM) for IFNβ
[7] = tumor, 3 h after final agonist injection, day 21

T1 sequence (Q86WV6 153-340 limits assumed): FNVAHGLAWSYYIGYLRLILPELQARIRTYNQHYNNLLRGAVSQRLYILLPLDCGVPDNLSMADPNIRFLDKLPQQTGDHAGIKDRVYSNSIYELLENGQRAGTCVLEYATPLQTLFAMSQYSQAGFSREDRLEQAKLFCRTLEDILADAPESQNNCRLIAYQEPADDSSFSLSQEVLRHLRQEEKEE

| SMILES | EC50 [1, 5] [µM] | EC50 [1, 6] [µM] | Kd [2] [nM] | Tumor size (BioVolume) compared to vehicle control ([3]; 31, 3.1 and 0.31 nmol intratumorally at days 11, 16 and 21, until day 21) | IFNα level in the tumor compared to diABZI [3, 7] | IFNγ level in the tumor compared to diABZI [3, 7] | EC50 [4] [nM] |
| --- | --- | --- | --- | --- | --- | --- | --- |
| CCn1nc(C)cc1C(=O)Nc1nc2cc(C(N)=O)cc(OC)c2n1C/C=C/Cn1c(NC(=O)c2cc(C)nn2CC)nc2cc(C(N)=O)cc(OCCCC(=O)N(C)NC)c21 [I-D] | 0.26 | 0.265 | 0.00413 | marked decrease in tumor size | higher levels | higher levels | – |
| CCn1nc(C)cc1C(=O)Nc1nc2cc(C(=O)NNC)cc(OC)c2n1C/C=C/Cn1c(NC(=O)c2cc(C)nn2CC)nc2cc(C(N)=O)cc(OCCCN3CCOCC3)c21 [II-B] | 1.95 | 1.16 | 0.959 | – | – | – | 2740 |
| CCn1nc(C)cc1C(=O)Nc1nc2cc(C(=O)N(C)NC)cc(OC)c2n1C/C=C/Cn1c(NC(=O)c2cc(C)nn2CC)nc2cc(C(N)=O)cc(OCCCN3CCOCC3)c21 [II-D] | 1.14 | 0.821 | 2.91 | – | – | – | – |
| CCn1nc(C)cc1C(=O)Nc1nc2cc(C(N)=O)cc(OC)c2n1C/C=C/Cn1c(NC(=O)c2cc(C)nn2CC)nc2cc(C(=O)NN)cc(OCCCN3CCOCC3)c21 [III] | – | 0.387 | 0.319 | – | – | – | – |
